Earlier results on four compounds are cited in patent publication US9968649B2, “Vasopressin formulations for use in treatment of hypotension” (Par Pharmaceutical, Inc., priority 2015, dated 2018).

Molecules are shown by their SMILES.

In the data set the test system is healthy subjects. As to conditions: cited from earlier work.

With `NS(=O)(=O)c1cc(C(=O)O)c(NCc2ccco2)cc1Cl` [Furosemide], the “increase of urine flow” value (co-administered with exogenous vasopressin, healthy subjects) is 9 fold. Regarding `FC(F)(F)C(Cl)Br` (stereo not shown) [Halothane], for the setting “in vivo”, the “impact on exposure to endogenous vasopressin” value is “do not impact exposure”. Take `COc1ccc2c(c1)c(CC(=O)O)c(C)n2C(=O)c1ccc(Cl)cc1` [Indomethacin]: under “co-administered with vasopressin, healthy subjects”, the “time to offset for vasopressin's effect on peripheral vascular resistance and cardiac output” value is recorded as “more than doubles”. As to `CC[N+](CC)(CC)CC` [tetra-ethylammonium], under “healthy subjects”, the “increase of the pressor effect of vasopressin” value is listed as 20%.
